Values of other authors in US20140206025A1, “Use Of Detection Of Aspartate Transaminase And Lactate Dehydrogenase In Early Evaluation Of Clinical Efficacy Of Antitumor Intervention Measure” (Beijing Sunbio Biotech Co., Ltd., priority 2011, published 2014).

Tested on: tumor cells
Settings: Cytokin & Growth Factor Reviews 14 (2003) 337-348

Substance: TRAIL/APO-2L: wild type Tumor necrosis factor-related apoptosis-inducing ligand, acts on Death Receptor 4 and/or 5
- induction of apoptosis of tumor cells: selectively induces the apoptosis of multiple tumor cells
- toxic effect on normal cells: no obvious toxic effect on normal cells
